Test system: 997726-040-R-J2-PDC tumor spheroids, viability
Assay: Anticancer human tumor 997726-040-R-J2-PDC patient-derived squamous cell lung carcinoma cell line growth inhibition [PI3K]
Conditions: spheroids with HUVEC and MSC; for IC50: curve of first compound; for viability, T/C: stronger effect = lower value
Outline: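 Viability of mixed-cell spheroids was determined after exposure to pairwise combinations, one partner being inavolisib, alpelisib, duvelisib or copanlisib. Highest tested concentration matched clinical Cmax where known and 10 microM where not, descending in half-log steps.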
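Further: spheroids exposed to compounds for seven days before readout.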

Work on Cn1cnc2c(F)c(Nc3ccc(Br)cc3Cl)c(C(=O)NOCCO)cc21 + Cc1nc(NC(=O)N2CCCC2C(N)=O)sc1-c1ccnc(C(C)(C)C(F)(F)F)c1 yielded an IC50 (second compound 0.0316 µM) of 129 nM, an IC50 (second compound 0.1 µM) of 66.2 nM and an IC50 (second compound 0.316 µM) of under 9.49 nM. For the same molecule, the IC50 (second compound 1 µM) was under 9.49 nM, the IC50 (second compound 3.16 µM) was under 9.49 nM and the IC50 (second compound 10 µM) was under 9.49 nM. The viability, T/C (second compound 0.0316 µM, first compound 0.00949 µM) was 74.8%, the viability, T/C (second compound 0.0316 µM, first compound 0.03 µM) was 58.5% and the viability, T/C (second compound 0.0316 µM, first compound 0.0949 µM) was 53.5%. For the same molecule, the viability, T/C (second compound 0.0316 µM, first compound 0.3 µM) was 41.7%, the viability, T/C (second compound 0.0316 µM, first compound 0.949 µM) was 45.9% and the viability, T/C (second compound 0.0316 µM, first compound 3 µM) was 34.1%. It also gave a viability, T/C (second compound 0.1 µM, first compound 0.00949 µM) of 67.6%, a viability, T/C (second compound 0.1 µM, first compound 0.03 µM) of 56.1% and a viability, T/C (second compound 0.1 µM, first compound 0.0949 µM) of 44.9%. It also gave a viability, T/C (second compound 0.1 µM, first compound 0.3 µM) of 40.5%, a viability, T/C (second compound 0.1 µM, first compound 0.949 µM) of 38.7% and a viability, T/C (second compound 0.1 µM, first compound 3 µM) of 28.5%. The viability, T/C (second compound 0.316 µM, first compound 0.00949 µM) was 51.1%, the viability, T/C (second compound 0.316 µM, first compound 0.03 µM) was 40.6% and the viability, T/C (second compound 0.316 µM, first compound 0.0949 µM) was 35.7%. For the same molecule, the viability, T/C (second compound 0.316 µM, first compound 0.3 µM) was 34.3%, the viability, T/C (second compound 0.316 µM, first compound 0.949 µM) was 28.4% and the viability, T/C (second compound 0.316 µM, first compound 3 µM) was 22.2%. For the same molecule, the viability, T/C (second compound 1 µM, first compound 0.00949 µM) was 36.7%, the viability, T/C (second compound 1 µM, first compound 0.03 µM) was 32.6% and the viability, T/C (second compound 1 µM, first compound 0.0949 µM) was 29.4%. It also gave a viability, T/C (second compound 1 µM, first compound 0.3 µM) of 25.3%, a viability, T/C (second compound 1 µM, first compound 0.949 µM) of 22.7% and a viability, T/C (second compound 1 µM, first compound 3 µM) of 21.2%. For the same molecule, the viability, T/C (second compound 3.16 µM, first compound 0.00949 µM) was 24.8%, the viability, T/C (second compound 3.16 µM, first compound 0.03 µM) was 21.2% and the viability, T/C (second compound 3.16 µM, first compound 0.0949 µM) was 22.2%. The viability, T/C (second compound 3.16 µM, first compound 0.3 µM) was 20.9%, the viability, T/C (second compound 3.16 µM, first compound 0.949 µM) was 20.7% and the viability, T/C (second compound 3.16 µM, first compound 3 µM) was 14.3%. For the same molecule, the viability, T/C (second compound 10 µM, first compound 0.00949 µM) was 17.8%, the viability, T/C (second compound 10 µM, first compound 0.03 µM) was 17.2% and the viability, T/C (second compound 10 µM, first compound 0.0949 µM) was 15.5%. The viability, T/C (second compound 10 µM, first compound 0.3 µM) was 15.3%, the viability, T/C (second compound 10 µM, first compound 0.949 µM) was 12.2% and the viability, T/C (second compound 10 µM, first compound 3 µM) was 7.26%.

CCN1CCN(Cc2ccc(Nc3ncc(F)c(-c4cc(F)c5nc(C)n(C(C)C)c5c4)n3)nc2)CC1 + CC(Nc1ncnc2nc[nH]c12)c1cc2cccc(Cl)c2c(=O)n1-c1ccccc1 gave an IC50 (second compound 0.0316 µM) of over 1000 nM, an IC50 (second compound 0.1 µM) of over 1000 nM and an IC50 (second compound 0.316 µM) of over 1000 nM. It also gave an IC50 (second compound 1 µM) of over 1000 nM, an IC50 (second compound 3.16 µM) of over 1000 nM and an IC50 (second compound 10 µM) of 5.26 nM. The viability, T/C (second compound 0.0316 µM, first compound 0.00316 µM) was 95.3%, the viability, T/C (second compound 0.0316 µM, first compound 0.01 µM) was 82.4% and the viability, T/C (second compound 0.0316 µM, first compound 0.0316 µM) was 75.6%. For the same molecule, the viability, T/C (second compound 0.0316 µM, first compound 0.1 µM) was 74.4%, the viability, T/C (second compound 0.0316 µM, first compound 0.316 µM) was 67.2% and the viability, T/C (second compound 0.0316 µM, first compound 1 µM) was 76.8%. It also gave a viability, T/C (second compound 0.1 µM, first compound 0.00316 µM) of 81.7%, a viability, T/C (second compound 0.1 µM, first compound 0.01 µM) of 91.1% and a viability, T/C (second compound 0.1 µM, first compound 0.0316 µM) of 73.1%. For the same molecule, the viability, T/C (second compound 0.1 µM, first compound 0.1 µM) was 68.3%, the viability, T/C (second compound 0.1 µM, first compound 0.316 µM) was 74.9% and the viability, T/C (second compound 0.1 µM, first compound 1 µM) was 82.7%. The viability, T/C (second compound 0.316 µM, first compound 0.00316 µM) was 87.5%, the viability, T/C (second compound 0.316 µM, first compound 0.01 µM) was 97.1% and the viability, T/C (second compound 0.316 µM, first compound 0.0316 µM) was 73.2%. It also gave a viability, T/C (second compound 0.316 µM, first compound 0.1 µM) of 68.7%, a viability, T/C (second compound 0.316 µM, first compound 0.316 µM) of 69.8% and a viability, T/C (second compound 0.316 µM, first compound 1 µM) of 78.4%. It also gave a viability, T/C (second compound 1 µM, first compound 0.00316 µM) of 79.1%, a viability, T/C (second compound 1 µM, first compound 0.01 µM) of 78.4% and a viability, T/C (second compound 1 µM, first compound 0.0316 µM) of 59.9%. The viability, T/C (second compound 1 µM, first compound 0.1 µM) was 61.5%, the viability, T/C (second compound 1 µM, first compound 0.316 µM) was 61.4% and the viability, T/C (second compound 1 µM, first compound 1 µM) was 68.9%. It also gave a viability, T/C (second compound 3.16 µM, first compound 0.00316 µM) of 70.7%, a viability, T/C (second compound 3.16 µM, first compound 0.01 µM) of 66.1% and a viability, T/C (second compound 3.16 µM, first compound 0.0316 µM) of 56.3%. For the same molecule, the viability, T/C (second compound 3.16 µM, first compound 0.1 µM) was 52.1%, the viability, T/C (second compound 3.16 µM, first compound 0.316 µM) was 60.1% and the viability, T/C (second compound 3.16 µM, first compound 1 µM) was 66%. It also gave a viability, T/C (second compound 10 µM, first compound 0.00316 µM) of 51.5%, a viability, T/C (second compound 10 µM, first compound 0.01 µM) of 50.9% and a viability, T/C (second compound 10 µM, first compound 0.0316 µM) of 41.2%. The viability, T/C (second compound 10 µM, first compound 0.1 µM) was 40.9%, the viability, T/C (second compound 10 µM, first compound 0.316 µM) was 40.6% and the viability, T/C (second compound 10 µM, first compound 1 µM) was 47.1%.

From PubChem BioAssay AID1963964 (Molecular Pharmacology Branch, DTP, NCI, 2024)
